Test results as given in patent US11578074B2, “Nitrogenous heterocyclic compound, preparation method, intermediate, composition, and application” (SHANGHAI PHARMACEUTICALS HOLDING CO., LTD., priority 2017, dated 2023).
Values belong to the molecule of their own block, whether it stands above or below them.

Tests used:
[1] = system: N87 (human gastric cancer cell NCI-N87); assay: In vitro proliferation inhibition assay of cell lines (CellTiter-Glo), N87; format: cell-based; conditions: N87 cells, 72 hours
Procedure, shortened: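 Cells seeded overnight (BT-474 8.8×10^4 cells/mL, N87 6.6×10^4 cells/mL), then exposed to 9 compound concentrations in duplicate for 72 hours at 37° C, 5% CO2. Viability read by CellTiter-Glo luminescence.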

[2] = In vivo pharmacokinetic study in rats; conditions: male, SD, rat, plasma, oral, 3 mg/kg intravenous, 6 mg/kg intragastric
Description: Five male SD rats, weighing 180-220 g (provided by Shanghai Xipuerbikai Experimental Animal Co., Ltd, certificate No. 20130016005408). The rats were fasted for feed but not water for 12-16 hours before the experiment. Two rats were intravenously injected with 3 mg/kg (which was dissolved by the ratio 0.9% physiological saline:PEG 400=7:3, to give a clear solution with a concentration of 1 mg/mL and a dosage volume of 3 mL/kg) of the final product of Embodiment 45. Blood samples were collected before administration and at 2, 5, 15, 30, 60, 90, 120, 240, 360, 480, 600 and 1440 minutes after administration respectively; three rats were intragastricly administrated with 6 mg/kg (0.5% CMC-Na was added and grounded into a uniform suspension with a concentration of 0.75 mg/mL and a dosage volume of 8 mL/kg) of the final product of Embodiment 45. Blood samples were collected before administration and at 5, 15, 30, 60, 90, 120, 240, 360, 480, 600 and 1440 minutes after administration respectively.
0.4 mL of blood was taken from fundus venous plexus of mice and rats into a heparinized centrifuge tube (10 μL heparin sodium solution/tube). […] After vortexing for 10 minutes and centrifuging at 6000 g and 4° C. for 10 minutes, the supernatant was diluted with mobile phase in a 96-well plate, and the drug concentration in plasma was determined by UPLC/MS-MS.

[3] = In vivo pharmacokinetics study in beagle dogs; conditions: male, beagle, dog, in vivo, po, 15 mg/kg
Description: 6 male beagle dogs (purchased from Beijing Marshall Biotechnology Co., Ltd., certificate No. SCXK (Beijing) 2016-0001) were divided into 2 groups with 3 dogs in each group, and all of the animals were fasted for about 12 hours before administration. One group was orally administrated with 15 mg/kg of the final product of Embodiment 22 (deionized water was added, followed by sonication for 29 minutes and stirring for 4 minutes, and a clear pale yellow dosing solution with a concentration of 3 mg/mL was prepared); the other group was orally administrated with 15 mg/kg of Pyrotinib (deionized water was added, followed by sonication for 28 minutes and stirring for 5 minutes, and a clear yellow dosing solution with a concentration of 3 mg/mL was prepared). Blood samples were collected before administration and at 15, 30, 60, 90, 120, 150, 180, 240, 360, 480, 720 and 1440 minutes respectively after administration.
(§1) 1.0 mL of blood was collected from each animal through jugular vein puncture at each time point and heparin sodium was used for anticoagulation. The blood samples were collected and placed in labeled centrifuge tubes, and plasma was centrifuged (centrifugation conditions: 3500 rpm, 10 minutes, 2-8° C.). To 50 μL of plasma sample was added 300 μL of acetonitrile containing internal standard (Propranolol, 25 ng/mL) to precipitate the protain. After vortexing for 10 minutes and centrifuging at 6000 g for 20 minutes, 100 μL of supernatant was taken and injected into a 96-well plate. The drug concentration in plasma was determined by UPLC/MS-MS.

[4] = system: HER2 overexpressing human gastric cancer NCI-N87 nude mice xenograft; assay: HER2 overexpressing human gastric cancer NCI-N87 nude mice xenograft model; format: in vivo; conditions: continuous oral administration for 21 days
Description: We have established nude mice xenograft model for HER2 overexpression.

[5] = In vivo pharmacokinetics study in cynomolgus monkeys; conditions: male, cynomolgus monkey, in vivo, po, 15 mg/kg
Description: 6 male cynomolgus monkeys (purchased from Guangxi Guidong Primate Development Experiment Co., Ltd., certificate No. SCXK (Guangxi) 2013-0057) were divided into 2 groups with 3 in each group, and all of the animals were fasted for about 12 hours before administration. One group was orally administrated with 15 mg/kg of the final product of Embodiment 22 (deionized water was added, followed by sonication for 30 minutes and stirring for 3 minutes, and a clear pale yellow dosing solution with a concentration of 3 mg/mL was prepared); one group was administrated with 15 mg/kg of Pyrotinib (deionized water was added, followed by sonication for 30 minutes and stirring for 4 minutes, and a clear yellow dosing solution with a concentration of 3 mg/mL was prepared). Blood samples were collected before administration and at 15, 30, 60, 90, 120, 150, 180, 240, 360, 480, 720 and 1440 minutes respectively after administration.
as §1

IC50 [1]: 1.3 nM
bioavailability [2]: 71.3%
SMILES: CCOc1cc2ncnc(Nc3ccc(Oc4ccn5ncnc5c4)c(C)c3)c2cc1NC(=O)/C(F)=C/[C@H]1CCCN1C [Final product of Embodiment 45]

SMILES: CCOc1cc2ncnc(Nc3ccc(Oc4ccn5ncnc5c4)c(C)c3)c2cc1NC(=O)/C=C/[C@H]1CCCN1C [Final product of Embodiment 22, (R,E)-N-(4-((4-([1,2,4]triazolo[1,5-a]pyridin-7-yloxy)-3-methylphenyl)amino)-7-ethoxyquinazolin-6-yl)-3-(1-methylpyrrolidin-2-yl)acrylamide]
IC50 [1]: 0.68 nM
AUC [3]: 5190 ng·h/mL
peak oral absorption concentration [3]: 432.6 ng/mL
tolerability ([4]; 5 mg/kg, 10 mg/kg and 20 mg/kg): tolerant
tumor volume inhibition rate (GI %) ([4]; 5 mg/kg): 51.5%
tumor volume inhibition rate (GI %) ([4]; 10 mg/kg): 130.1%
tumor volume inhibition rate (GI %) ([4]; 20 mg/kg): 146.2%
AUC [5]: 5580 ng·h/mL
oral absorption peak concentration [5]: 506.5 ng/mL
